Measurements published in US20170000112A1, “METHOD OF PRESERVING CUT ROSES DURING TRANSPORTATION AND STORAGE AND SHIPMENT KIT CONTAINING CUT ROSES” (priority 2013, published 2017).

Key:
cut roses [1] = assay: Vase life and leaf quality after 9 days simulated dry transport (Examples 3 and 4); assay type: in vivo, rose; conditions: for Vase life: dipped in 80 ppm BA, 9 days dry transport; for Leaf quality: visual score after 12 days on the vase, 1=poor, 5=good
From the text: Example 1 was repeated, except that this time no Reference set was used, i.e. the study used two sets of flowers that were both transported without water supply (dry). Furthermore, the cut roses used in the study had been air transported under dry conditions from Colombia to the Netherlands. Bunches containing 4 flowers of each of three different types of roses (‘Red Intuition’ (red), ‘Citran’ (yellow), ‘Vendela’ (white) were used in this study. The duration of simulated transportation was reduced from 14 to 9 days and the duration of shop display was increased from 2 to 3 days.
Besides the vase life of the flowers the expert panel also scored visual leaf quality after 12 days on the vase (1=poor, 5=good). The BA concentration in the flower heads was not analyzed in this study.
Example 3 was repeated, except that this time the following three different types of roses were used in the study: • ‘Freedom’ (red) • ‘Bonanza’ (peach) • ‘Sandra’ (pink)

cut rose flowers = conditions: sprayed or held in solution prior to simulated home conditions; cited from earlier work
cut red roses [2] = assay: Vase life, dipped/dry versus BA in bucket water, 8 days at 2° C. (Example 6); assay type: in vivo, rose
Protocol: Example 5 was repeated, except that this time the sets of cut flowers were kept under refrigerated and dark conditions for 8 days instead of 24 hours.

cut red roses [3] = assay: Vase life, dipped/dry versus BA in bucket water, 24 hours at 2° C. (Example 5); assay type: in vivo, rose
From the text: Three different types of cut red roses were used in this study, namely ‘Hot Blood’, ‘Rhodos’ and ‘Incredible’. For each type flowers were randomly divided into four different sets.
One set of flowers (set A) was subjected to a preservation treatment that involved dipping of the flower heads into an aqueous solution of 80 ppm 6-benzylaminopurine (BA) in tap water for 3 seconds.
Immediately after the preservation treatment of set A, each set of flowers was bunched and sleeved (10 flowers per sleeved bunch) after the ends of the flower stems had been cut off, and in total 20 flowers of each set were kept for 4 hours at 20° C. under dark conditions in buckets (60 stems per bucket) with the flower stems immersed in 2 liters of water containing 1 ml/l of a flower pre-treatment product (Chrysal® Grow 20).
Following this pre-treatment, the sleeved flower bunches of set A were removed from the buckets and packaged without any external water supply in a carton box (l×b×h=1.0×0.4×0.2 m). The carton box contained 6 sleeved flower bunches.
One of the other three sets of non-dipped flowers(Control) was packaged in the same way, i.e. in carton boxes without external water supply.
The remaining two sets of non-dipped flowers (sets B and C) were introduced into buckets (20 stems per bucket) that each contained 2 liters of water.
The bucket water of set B contained 7 ppm BA. The bucket water of set C contained 7 ppm BA as well as 5 ml/l of Chrysal® Clear Professional 2 (CCP2). This product is based on sugars and acidifier, while biocides are present to protect these active ingredients against bacterial attack.
The four sets of roses were kept at 2° C. under dark conditions for 24 hours, following which each set was transferred into buckets (60 stems per bucket) that contained 2 liters of water to which 5 ml/l Chrysal® Clear Professional 2 had been added. Before introducing the cut flowers into the buckets, the ends of the flower stems were cut off. The buckets holding the sleeved cut flowers were kept for 4 days under dark, refrigerated (2° C.) conditions, and subsequently for 2 days at 20° C. under daylight conditions (12 hours 1000 lux and 12 hours dark).
Next, for each of the three different type of cut red roses the two bunches of 10 cut flowers from each of the sets were introduced in vases, each holding 1 liter of water to which 10 g/l Chrysal® Clear had previously been added. Before introducing the cut flowers into the vases, the ends of the flower stems were cut off. The vases holding the flowers were kept at 20° C. under daylight conditions (12 hours 1000 lux and 12 hours dark).
The quality of the cut flowers was assessed at regular intervals by an expert panel and from these assessments the average vase life was determined for the cut flowers of each of the 4 sets.
The letters behind the numerical scores in Table 8 indicate to which extent the difference between the 4 scores for a given set of cut flowers are statistically significant (at a P-value of 0.05). Scores that are followed by the same latter are not statistically significant.

cut roses [4] = assay: Vase life of cut roses after 14 days simulated dry refrigerated transport (Examples 1 and 2); assay type: in vivo, rose; conditions: flower heads dipped 3 s in 80 ppm BA, 14 days dry transport at 2° C.
Protocol: Freshly cut red roses (Red Desire') were obtained from a greenhouse in the Netherlands. These flowers were randomly divided into three different sets . Within 4 hours of cutting, one set of flowers (set A) was subjected to a preservation treatment that involved dipping of the flower heads into an aqueous solution of 80 ppm 6-benzylaminopurine (BA) in tap water for 3 seconds. Immediately after the preservation treatment, each set of flowers was bunched and sleeved (6 flowers per sleeved bunch) after the ends of the flower stems had been cut off, and in total 108 flowers of each set were kept 24 hours at 2° C. under dark conditions in buckets (54 stems per bucket) with the flower stems immersed in 2 liters of water containing 1 ml/l of a flower pre-treatment product ([…]® Grow 20). Following this pre-treatment, the sleeved flower bunches of set A were removed from the buckets and packaged without any external water supply in a carton box (l×b×h=1.0×0.4×0.2 m). The carton box contained 18 sleeved flower bunches. One of the other two sets of flowers (Control) was packaged in the same way. The remaining set of flowers (Reference) was not packaged dry into a carton box, but immediately subjected to the sequence of storage and display conditions described in Table 1. [table] Before the refrigerated storage and the home display the ends of the flower stems were cut off. The packaged flowers (sleeved and in a carton box) belonging to Set A and the Control set were subjected to simulated refrigerated transport under dry, dark conditions for 14 days at 2° C. before also being subjected to the sequence of storage and display conditions described in Table 1. Before the refrigerated storage stage the BA concentrations in the flower heads were analyzed. In addition, the vase life of the flowers was assessed by an expert panel during the home display period. Example 1 was repeated, except that this time, instead of using cut roses obtained from a Dutch green house, cut roses that had been air transported under dry conditions from Kenya to the Netherlands were used. Three different types of cut red roses were used in this study, namely 'Hot Blood', 'Rhodos' and 'Incredible'.

cut red roses [5] = assay: Colour retention of red roses after 11 days on the vase (Examples 1 and 2); assay type: in vivo, rose; conditions: dipped in 80 ppm BA
[6] = tested on: flower spikes of gladiolus and carnation; conditions: stems immersed in 10, 30 and 75 ppm solution; spikes previously wilted dry for 4 hours; cited from earlier work
rose flower buds = conditions: 350 mg/L (ca. 1 mM) solution; preliminary experiments, data not shown; cited from earlier work

SMILES: c1ccc(CNc2ncnc3nc[nH]c23)cc1 [BA, 6-benzylaminopurine]
- Vase life (cut roses [1]; 'Bonanza' (peach)): 14.5 days
- Vase life (cut roses [1]; 'Citran' (yellow, Colombia)): 12.5 days
- Vase life (cut roses [1]; 'Freedom' (red)): 18.8 days
- Vase life (cut roses [1]; 'Red Intuition' (red, Colombia)): 9.6 days
- Vase life (cut roses [1]; 'Sandra' (pink)): 17.6 days
- Vase life (cut roses [1]; 'Vendela' (white, Colombia)): 13.0 days
- Leaf quality (cut roses [1]; Example 3 (Red Intuition, Citran, Vendela)): 3.0
- Leaf quality (cut roses [1]; Example 4 (Freedom, Bonanza, Sandra)): 4.0
- Effect on rose vase life (cut rose flowers): did not benefit on rose vase life
- Average vase life of the dipped set versus the non-dipped sets (cut red roses [2]; 'Hot Blood', P-value of 0.05, 8 days at 2° C.): higher than that of the non-dipped sets, but the difference with the control set and set C was not statistically significant
- Vase life (cut red roses [2]; 'Hot Blood', non-dipped, wet, stems in bucket water containing 7 ppm BA, 8 days at 2° C.): 7.3 days
- Vase life (cut red roses [2]; 'Hot Blood', set A, flower heads dipped in 80 ppm BA, dry in carton box 8 days at 2° C.): 11.8 days
- Vase life (cut red roses [2]; 'Incredible', non-dipped, wet, stems in bucket water containing 7 ppm BA, 8 days at 2° C.): 10.4 days
- Vase life (cut red roses [2]; 'Incredible', set A, flower heads dipped in 80 ppm BA, dry in carton box 8 days at 2° C.): 14.8 days
- Vase life (cut red roses [2]; 'Rhodos', non-dipped, wet, stems in bucket water containing 7 ppm BA, 8 days at 2° C.): 8.2 days
- Vase life (cut red roses [2]; 'Rhodos', set A, flower heads dipped in 80 ppm BA, dry in carton box 8 days at 2° C.): 13.5 days
- Vase life of the dipped set versus the non-dipped sets (cut red roses [2]; two of the rose types ('Rhodos', 'Incredible'), P-value of 0.05, 8 days at 2° C.): significantly longer vase life
- Vase life (cut red roses [3]; 'Hot Blood', non-dipped, wet, stems in bucket water containing 7 ppm BA, 24 hours at 2° C.): 11.2 days
- Vase life (cut red roses [3]; 'Hot Blood', set A, flower heads dipped in 80 ppm BA, dry in carton box 24 hours at 2° C.): 16.2 days
- Vase life (cut red roses [3]; 'Incredible', non-dipped, wet, stems in bucket water containing 7 ppm BA, 24 hours at 2° C.): 11.1 days
- Vase life (cut red roses [3]; 'Incredible', set A, flower heads dipped in 80 ppm BA, dry in carton box 24 hours at 2° C.): 17.2 days
- Vase life (cut red roses [3]; 'Rhodos', non-dipped, wet, stems in bucket water containing 7 ppm BA, 24 hours at 2° C.): 9.4 days
- Vase life (cut red roses [3]; 'Rhodos', set A, flower heads dipped in 80 ppm BA, dry in carton box 24 hours at 2° C.): 13.9 days
- Vase life of the dipped set versus the non-dipped sets (cut red roses [3]; each of the rose types, P-value of 0.05, 24 hours at 2° C.): significantly longer vase life
- Vase life (cut roses [4]; 'Hot Blood' (Kenya)): 13.9 days
- Vase life (cut roses [4]; 'Incredible' (Kenya)): 13.0 days
- Vase life (cut roses [4]; 'Red Desire'): 12.8 days
- Vase life (cut roses [4]; 'Rhodos' (Kenya)): 14.9 days
- Colour of the red roses after 11 days on the vase (cut red roses [5]; 'Hot Blood', control showed blueing/darkening): retained most of their original red colour
- Colour of the red roses after 11 days on the vase (cut red roses [5]; 'Incredible', control showed blueing/darkening): retained most of their original red colour
- Colour of the red roses after 11 days on the vase (cut red roses [5]; 'Red Desire', control showed bluing/darkening): retained most of their original red colour
- Colour of the red roses after 11 days on the vase (cut red roses [5]; 'Rhodos', control showed blueing/darkening): retained most of their original red colour
- Effect on vase life of flower spikes [6]: extended the vase life

SMILES: C=C1C[C@]23C[C@@]1(O)CC[C@H]2[C@@]12C=C[C@H](O)[C@](C)(C(=O)O1)[C@H]2[C@@H]3C(=O)O [GA3]
- Effect on rose flower vase-life when applied as a spray (rose flower buds): optimal for improving rose flower vase-life

SMILES: c1coc(CNc2ncnc3[nH]cnc23)c1 [KI, kinetin]
- Effect on rose vase life (cut rose flowers): did not benefit on rose vase life
